# From ChEMBL document CHEMBL1201862, “PubChem BioAssay data set” (2004)
# Active and inactive are the calls of the source.
# Key:
# Cytochrome P450 1A2 = target: T1, Cytochrome P450 1A2 (Homo sapiens, UniProt P05177);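 also: PubChem cytochrome P450 panel assay, CYP1A2 panel member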
# T1 sequence (P05177 whole entry): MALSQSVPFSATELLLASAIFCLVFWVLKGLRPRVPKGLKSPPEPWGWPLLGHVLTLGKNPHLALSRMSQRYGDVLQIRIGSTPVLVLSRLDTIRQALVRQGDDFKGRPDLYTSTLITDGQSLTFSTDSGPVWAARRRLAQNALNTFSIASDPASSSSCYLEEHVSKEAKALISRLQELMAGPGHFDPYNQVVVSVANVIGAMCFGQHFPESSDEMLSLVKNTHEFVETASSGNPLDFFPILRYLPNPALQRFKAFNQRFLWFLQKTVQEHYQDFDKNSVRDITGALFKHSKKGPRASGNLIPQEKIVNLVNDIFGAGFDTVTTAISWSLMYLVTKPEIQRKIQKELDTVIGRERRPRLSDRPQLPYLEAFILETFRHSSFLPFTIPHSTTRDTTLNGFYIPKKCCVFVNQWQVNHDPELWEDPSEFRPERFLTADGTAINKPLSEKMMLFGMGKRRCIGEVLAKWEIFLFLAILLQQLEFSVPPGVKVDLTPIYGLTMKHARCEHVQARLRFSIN
# [1] = Luminescence Cell-Based Dose Response HTS to Identify Activators of Luciferase Translation or Activity in H4 […] Cells. [Related pubchem assays: 1829 (Project Summary), 1814 (Primary HTS)]; format: functional
# H4 = assay: Luminescence Cell-Based Dose Response HTS to Identify Activators of 5'UTR Stem-Loop Driven Prion Protein mRNA Translation in H4 Neuroglioblastoma Cells. [Related pubchem assays: 1829 (Project Summary), 1814 (Primary HTS)]; format: functional; conditions: Homo sapiens
# Cytochrome P450 2D6 = Cytochrome P450 2D6 (Homo sapiens, UniProt P10635);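 also: CYP2D6 member of a cytochrome P450 panel assay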
# Chain of Cytochrome P450 2D6 (P10635 whole entry): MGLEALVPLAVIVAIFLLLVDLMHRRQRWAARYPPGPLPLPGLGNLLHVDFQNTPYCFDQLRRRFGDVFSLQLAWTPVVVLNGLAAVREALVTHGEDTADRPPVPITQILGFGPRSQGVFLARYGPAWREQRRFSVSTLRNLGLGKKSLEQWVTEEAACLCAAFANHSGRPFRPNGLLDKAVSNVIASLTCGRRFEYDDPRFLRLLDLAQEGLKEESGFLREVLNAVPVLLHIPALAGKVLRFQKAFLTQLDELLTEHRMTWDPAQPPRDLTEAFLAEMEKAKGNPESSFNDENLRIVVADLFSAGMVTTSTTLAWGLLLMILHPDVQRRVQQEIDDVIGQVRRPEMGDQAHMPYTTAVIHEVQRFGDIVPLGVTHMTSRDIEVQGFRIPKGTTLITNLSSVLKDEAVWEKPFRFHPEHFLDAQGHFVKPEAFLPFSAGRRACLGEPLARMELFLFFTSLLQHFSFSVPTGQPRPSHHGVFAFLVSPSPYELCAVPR
# [2] = HEp-2 cell cytotoxicity, dose response, cytotoxicity control for RSV inhibitor project, HTS (AID 2410); format: functional; conditions: human respiratory syncytial virus
# Cytochrome P450 3A4 = Cytochrome P450 3A4 (Homo sapiens, UniProt P08684);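 also: CYP3A4 tested as one member of a cytochrome P450 panel screen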
# Chain of Cytochrome P450 3A4 (P08684 whole entry, the tested form may be a part): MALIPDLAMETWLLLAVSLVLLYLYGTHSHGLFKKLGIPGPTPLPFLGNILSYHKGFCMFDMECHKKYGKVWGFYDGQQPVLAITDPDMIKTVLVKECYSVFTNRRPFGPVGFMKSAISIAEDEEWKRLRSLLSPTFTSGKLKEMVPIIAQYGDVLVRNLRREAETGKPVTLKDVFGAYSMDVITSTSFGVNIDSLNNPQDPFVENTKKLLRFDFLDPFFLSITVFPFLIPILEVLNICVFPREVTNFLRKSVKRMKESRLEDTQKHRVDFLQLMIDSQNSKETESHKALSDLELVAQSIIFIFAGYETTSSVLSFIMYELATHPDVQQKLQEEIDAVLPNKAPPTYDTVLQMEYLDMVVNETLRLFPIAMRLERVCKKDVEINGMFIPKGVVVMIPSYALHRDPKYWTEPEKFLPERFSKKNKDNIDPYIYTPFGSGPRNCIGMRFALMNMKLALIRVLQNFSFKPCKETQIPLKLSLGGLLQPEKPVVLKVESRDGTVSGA
# Fatty acid synthase [3] = target: T2, Fatty acid synthase (Homo sapiens, UniProt P49327); assay: FAS thioesterase domain inhibitors, dose response, biochemical, endpoint fluorescence intensity, uHTS hits (AID 624327); format: functional;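 also: fluorescence from hydrolysis of an O-methyl fluorescein acyl ester substrate by the enzyme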
# T2 sequence (P49327 whole entry, the tested form may be a part): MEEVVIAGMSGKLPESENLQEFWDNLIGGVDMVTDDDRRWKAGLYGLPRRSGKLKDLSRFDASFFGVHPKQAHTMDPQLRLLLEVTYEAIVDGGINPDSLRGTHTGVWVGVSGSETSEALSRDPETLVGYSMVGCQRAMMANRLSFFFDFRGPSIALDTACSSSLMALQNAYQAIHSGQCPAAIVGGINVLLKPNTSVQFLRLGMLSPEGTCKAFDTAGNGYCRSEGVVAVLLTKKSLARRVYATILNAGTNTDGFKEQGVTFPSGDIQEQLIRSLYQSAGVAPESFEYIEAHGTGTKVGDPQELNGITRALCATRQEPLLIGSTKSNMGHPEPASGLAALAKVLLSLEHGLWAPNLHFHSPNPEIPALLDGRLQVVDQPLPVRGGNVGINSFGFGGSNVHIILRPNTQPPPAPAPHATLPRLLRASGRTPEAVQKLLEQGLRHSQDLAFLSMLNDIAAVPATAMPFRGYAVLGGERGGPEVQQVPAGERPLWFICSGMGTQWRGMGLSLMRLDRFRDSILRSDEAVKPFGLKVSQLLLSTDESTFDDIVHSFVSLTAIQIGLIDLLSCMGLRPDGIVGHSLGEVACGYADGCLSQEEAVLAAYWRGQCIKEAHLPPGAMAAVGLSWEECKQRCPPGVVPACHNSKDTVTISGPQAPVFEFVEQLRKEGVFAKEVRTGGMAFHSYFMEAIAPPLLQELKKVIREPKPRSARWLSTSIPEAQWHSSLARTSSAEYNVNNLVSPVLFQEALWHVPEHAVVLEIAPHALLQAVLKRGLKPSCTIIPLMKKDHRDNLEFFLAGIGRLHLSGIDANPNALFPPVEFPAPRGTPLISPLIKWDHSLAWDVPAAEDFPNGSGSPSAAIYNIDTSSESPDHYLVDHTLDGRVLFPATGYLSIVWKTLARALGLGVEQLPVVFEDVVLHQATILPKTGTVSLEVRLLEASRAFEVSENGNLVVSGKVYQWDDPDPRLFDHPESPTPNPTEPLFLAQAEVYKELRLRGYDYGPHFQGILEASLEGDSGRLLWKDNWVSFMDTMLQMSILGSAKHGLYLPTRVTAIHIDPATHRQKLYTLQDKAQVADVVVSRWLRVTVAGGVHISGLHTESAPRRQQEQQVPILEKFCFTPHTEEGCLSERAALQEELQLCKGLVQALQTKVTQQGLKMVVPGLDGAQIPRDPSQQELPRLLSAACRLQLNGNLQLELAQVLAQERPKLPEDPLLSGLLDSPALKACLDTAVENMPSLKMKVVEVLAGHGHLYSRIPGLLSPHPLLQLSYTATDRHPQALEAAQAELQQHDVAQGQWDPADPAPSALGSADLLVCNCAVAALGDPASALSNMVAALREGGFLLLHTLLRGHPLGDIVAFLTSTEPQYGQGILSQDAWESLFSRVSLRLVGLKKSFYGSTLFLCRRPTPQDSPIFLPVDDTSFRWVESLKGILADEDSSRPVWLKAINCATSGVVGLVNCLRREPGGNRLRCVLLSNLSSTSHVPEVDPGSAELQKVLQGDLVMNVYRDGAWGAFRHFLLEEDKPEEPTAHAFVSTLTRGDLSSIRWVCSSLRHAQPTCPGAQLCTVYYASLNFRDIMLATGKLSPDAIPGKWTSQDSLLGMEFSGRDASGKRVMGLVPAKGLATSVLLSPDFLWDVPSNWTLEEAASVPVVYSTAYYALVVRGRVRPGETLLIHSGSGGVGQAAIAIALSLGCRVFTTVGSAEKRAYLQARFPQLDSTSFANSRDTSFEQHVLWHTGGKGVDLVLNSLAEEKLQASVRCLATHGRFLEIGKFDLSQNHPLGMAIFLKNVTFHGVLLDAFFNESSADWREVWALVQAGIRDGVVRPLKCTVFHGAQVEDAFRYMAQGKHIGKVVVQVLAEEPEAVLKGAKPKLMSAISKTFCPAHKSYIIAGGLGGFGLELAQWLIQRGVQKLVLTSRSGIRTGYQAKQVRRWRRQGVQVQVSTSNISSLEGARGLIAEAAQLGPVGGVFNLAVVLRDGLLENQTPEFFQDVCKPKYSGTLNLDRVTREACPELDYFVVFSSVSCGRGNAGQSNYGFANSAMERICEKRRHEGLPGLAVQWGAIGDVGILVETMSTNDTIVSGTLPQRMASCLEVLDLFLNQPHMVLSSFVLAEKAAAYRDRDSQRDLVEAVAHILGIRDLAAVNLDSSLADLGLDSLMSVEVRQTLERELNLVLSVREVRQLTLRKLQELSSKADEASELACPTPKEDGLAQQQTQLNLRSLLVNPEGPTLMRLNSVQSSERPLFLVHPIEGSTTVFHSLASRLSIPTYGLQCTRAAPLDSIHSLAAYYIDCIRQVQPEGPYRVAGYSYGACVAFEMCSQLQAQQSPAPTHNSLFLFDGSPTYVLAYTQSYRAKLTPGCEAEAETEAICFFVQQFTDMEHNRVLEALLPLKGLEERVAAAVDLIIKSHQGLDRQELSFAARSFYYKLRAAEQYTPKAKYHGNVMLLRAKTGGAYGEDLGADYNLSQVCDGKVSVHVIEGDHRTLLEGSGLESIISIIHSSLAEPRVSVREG
# Fatty acid synthase [4] = target: T2, Fatty acid synthase; assay: FAS thioesterase domain inhibitors, dose response, biochemical, kinetic fluorescence intensity (AID 624326); format: functional;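 also: rate of fluorescence rise from hydrolysis of a fluorogenic O-methyl fluorescein ester substrate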
# [5] = tested on: Streptococcus sp. 'group A'; assay: growth inhibition of control SK(-) GAS strain, dose response, counter-screen for streptokinase expression inhibitor project, luminescence, kanamycin, BacTiterGlo, confirmation (AID 1900); format: functional, organism-based
# Streptococcus = assay: Group A Streptococcus viability loss, dose response, counter-screen for streptokinase expression inhibitor project, luminescence, BacTiterGlo (AID 1915); format: functional, organism-based;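 also: potency for reduction of bacterial viability or growth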
# Streptokinase A = target: T3, Streptokinase A (Streptococcus pyogenes serotype M1, UniProt P10520); assay: S. pyogenes streptokinase expression inhibitors, potency, dose response, plasminogen activation absorbance, OD405 (AID 1914); format: functional, Streptococcus pyogenes M1 GAS;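 also: secreted streptokinase activity via plasminogen activation per viability signal from cell pellet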
# T3 sequence (P10520 whole entry): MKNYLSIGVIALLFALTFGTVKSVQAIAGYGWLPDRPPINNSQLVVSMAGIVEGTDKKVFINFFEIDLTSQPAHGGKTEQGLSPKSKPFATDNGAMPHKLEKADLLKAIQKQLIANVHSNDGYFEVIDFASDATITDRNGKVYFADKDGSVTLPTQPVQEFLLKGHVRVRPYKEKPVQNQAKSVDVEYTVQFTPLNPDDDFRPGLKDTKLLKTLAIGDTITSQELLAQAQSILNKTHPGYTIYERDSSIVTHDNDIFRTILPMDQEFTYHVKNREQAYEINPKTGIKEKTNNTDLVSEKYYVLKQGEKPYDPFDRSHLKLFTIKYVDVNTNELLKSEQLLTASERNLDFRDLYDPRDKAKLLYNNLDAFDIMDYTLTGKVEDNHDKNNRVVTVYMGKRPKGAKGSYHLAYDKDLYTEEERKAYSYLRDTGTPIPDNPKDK
# [6] = NIH-3T3 fibroblast cytotoxicity, dose response, cytotoxicity control, cell-based, fluorescence, Alamar Blue, secondary assay (AID 2327); format: functional;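 also: NIH-3T3 mouse fibroblasts cultured with fluconazole at 8 µg/mL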
# [7] = C. albicans growth with fluconazole, confirmation, fluorescence, retest (AID 2467); format: functional, cell-based
# Cytochrome P450 2C19 = Cytochrome P450 2C19 (Homo sapiens, UniProt P33261); assay: Cytochrome panel assay with activity outcomes. Panel member name: p450-cyp2c19 Compounds with AC50 equal or less than 10 uM are considered active; format: functional; conditions: read-out: AC50
# Chain of Cytochrome P450 2C19 (P33261 whole entry): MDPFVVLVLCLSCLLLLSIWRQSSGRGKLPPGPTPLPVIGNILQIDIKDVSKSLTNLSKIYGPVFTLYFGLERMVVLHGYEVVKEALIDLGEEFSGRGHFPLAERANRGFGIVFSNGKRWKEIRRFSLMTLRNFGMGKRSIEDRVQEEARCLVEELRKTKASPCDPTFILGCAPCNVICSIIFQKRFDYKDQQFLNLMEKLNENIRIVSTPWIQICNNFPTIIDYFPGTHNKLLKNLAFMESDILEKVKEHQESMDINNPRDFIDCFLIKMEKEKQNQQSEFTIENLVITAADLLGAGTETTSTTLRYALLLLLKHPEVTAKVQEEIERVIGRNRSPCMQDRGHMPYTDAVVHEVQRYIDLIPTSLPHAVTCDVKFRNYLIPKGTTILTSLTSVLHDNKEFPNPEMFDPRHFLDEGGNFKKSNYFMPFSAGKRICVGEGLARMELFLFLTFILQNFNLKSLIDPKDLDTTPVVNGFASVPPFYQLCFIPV
# Cytochrome P450 2C9 = Cytochrome P450 2C9 (Homo sapiens, UniProt P11712)
# Chain of Cytochrome P450 2C9 (P11712 whole entry): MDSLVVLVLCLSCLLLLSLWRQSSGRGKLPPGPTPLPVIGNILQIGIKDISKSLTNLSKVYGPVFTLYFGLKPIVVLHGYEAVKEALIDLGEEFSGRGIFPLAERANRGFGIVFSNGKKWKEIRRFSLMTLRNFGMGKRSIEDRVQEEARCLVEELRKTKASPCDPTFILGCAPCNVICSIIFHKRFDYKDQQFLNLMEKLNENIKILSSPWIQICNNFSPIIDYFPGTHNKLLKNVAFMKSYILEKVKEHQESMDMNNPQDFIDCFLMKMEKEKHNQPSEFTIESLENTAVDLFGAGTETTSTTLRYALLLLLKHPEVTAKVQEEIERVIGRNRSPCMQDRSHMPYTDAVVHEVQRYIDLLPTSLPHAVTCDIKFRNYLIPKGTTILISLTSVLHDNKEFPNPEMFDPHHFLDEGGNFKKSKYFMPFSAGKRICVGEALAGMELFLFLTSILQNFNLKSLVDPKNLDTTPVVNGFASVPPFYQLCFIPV
# [8] = cytotoxicity toward NIH3T3 fibroblasts, dose response, counter-screen, cell-based, ATP luminescence, mouse fibroblasts (AID 2010); format: functional;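 also: cells exposed to compound for about 90 hours before reading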
# [9] = inhibitors of intracellular T. cruzi replication, confirmation, NIH3T3 host cells, beta-gal luminescence (AID 2044); format: functional, cell-based;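 also: intracellular parasites grown in NIH/3T3 mouse fibroblasts as host cells; luminescent beta-galactosidase reporter signal from transgenic T. cruzi replicating inside host cells; inhibitors lower the luminescence signal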
compound,measurement,setting,value
C[C@]1(c2ccccc2)OC(C(=O)O)=CC1=O,AC50,Cytochrome P450 1A2,39.8 µM (inconclusive)
Cc1cccc(N(C)C(=O)c2cc3cc4ccc(C)cc4nc3o2)c1,EC50,[1],1.69 µM (active)
same,EC50,H4,14.3 µM (active)
CN(C)c1ncc2nc(-c3cccc(C#N)c3)c(=O)n(C[C@H]3CCCO3)c2n1,AC50,Cytochrome P450 2D6,2.51 µM (inconclusive)
same,AC50,Cytochrome P450 1A2,3.16 µM (inconclusive)
CC(C)(C)Nc1nc(-c2ccc3c(c2)CCN3C(=O)C2CC2)cs1,CC50,[2],25.2 µM (active)
O=c1c(-c2cccc(Cl)c2)nc2cncnc2n1Cc1ccccc1Cl,AC50,Cytochrome P450 2D6,15.8 µM (inconclusive)
same,AC50,Cytochrome P450 3A4,12.6 µM (inconclusive)
O=C(Nn1c(-c2ccc(Br)cc2)nc2ccccc2c1=O)c1ccc([N+](=O)[O-])cc1,IC50,Fatty acid synthase [3],8.68 µM (active)
same,IC50,Fatty acid synthase [4],7.74 µM (active)
CC(=O)c1cccc(-c2ccnc3c2CC(C(=O)Nc2cccc(OC(F)(F)F)c2)O3)c1 (configuration not stated),IC50,Fatty acid synthase [3],9.72 µM (active)
same,IC50,Fatty acid synthase [4],6.27 µM (active)
Cc1noc(C)c1C(=O)N1CCC2(CC1)CCN(c1ccncc1)CC2,AC50,Cytochrome P450 2D6,12.6 µM (inconclusive)
same,AC50,Cytochrome P450 3A4,3.98 µM (inconclusive)
CN(C)c1ncc2nc(-c3cccs3)c(=O)n(CCc3ccccc3)c2n1,AC50,Cytochrome P450 1A2,5.01 µM (inconclusive)
Cc1ccc(-c2nn(-c3ccccc3)cc2/C=N/O)cc1,EC50,[5],> 150 µM (not active)
same,CC50,[2],27.9 µM (active)
same,EC50,Streptococcus,> 150 µM (not active)
same,EC50,Streptokinase A,> 150 µM (not active)
Fc1ccc(C2CC(c3ccco3)=NN2c2ccccc2)cc1 (configuration not stated),AC50,Cytochrome P450 3A4,0.0251 µM (inconclusive)
O=C(NNc1ccc([N+](=O)[O-])cc1)c1ccccc1Cl,EC50,[6],> 150 µM (inactive)
same,EC50,[7],> 38 µM (not active)
COC(=O)[C@@]1(Cc2ccc(F)cc2)[C@H]2c3cc(C(=O)N4CCCC4)n(Cc4c(CO)ncc(C)c4O)c3C[C@H]2CN1C(=O)c1ccccc1,AC50,Cytochrome P450 2C19,39.8 µM (inconclusive)
same,AC50,Cytochrome P450 1A2,20 µM (inconclusive)
Cc1ccccc1N(C(=O)Cn1nnc(-c2cccs2)n1)C(C(=O)NCCC(C)C)c1ccco1 (configuration not stated),CC50,[2],40.4 µM (active)
O=C(COc1ccc2ccccc2c1)N1c2ccccc2Sc2ccccc21,CC50,[2],26.8 µM (active)
CN(CCC#N)C(=O)c1ccc(CNS(=O)(=O)c2ccc(F)cc2)cc1,AC50,Cytochrome P450 3A4,0.112 µM (inconclusive)
same,AC50,Cytochrome P450 1A2,2 µM (inconclusive)
same,AC50,Cytochrome P450 2C9,10 µM (inconclusive)
COC(=O)c1ccc(/C=N\NC(=O)c2ccc(C)cc2Cl)cc1,AC50,Cytochrome P450 1A2,10 µM (inconclusive)
COc1ccc(C2SCC(=O)Nc3c2c(C)nn3C2CCOC(C)(C)C2)cc1 (configuration not stated),AC50,Cytochrome P450 2C19,39.8 µM (inconclusive)
same,AC50,Cytochrome P450 3A4,28.2 µM (inconclusive)
same,AC50,Cytochrome P450 2C9,25.1 µM (inconclusive)
COc1ccc(-c2cc(C(=O)Nc3cc(OC)c(OC)c(OC)c3)no2)cc1OC,AC50,Cytochrome P450 2C19,39.8 µM (inconclusive)
same,AC50,Cytochrome P450 3A4,10 µM (inconclusive)
CSc1nc(C)cc(SC(C(C)=O)C(=O)Nc2ccccc2)n1 (configuration not stated),AC50,Cytochrome P450 3A4,14.1 µM (inconclusive)
same,AC50,Cytochrome P450 1A2,15.8 µM (inconclusive)
same,AC50,Cytochrome P450 2C9,1.58 µM (inconclusive)
O=C(CN1CCC(n2nnc3ccccc32)CC1)Nc1ccc2c(c1)CCC2,CC50,[2],49.5 µM (active)
O=S(=O)(Nc1nc(-c2ccccc2)cs1)c1cc(Cl)ccc1Cl,EC50,[6],> 160 µM (inactive)
same,EC50,[7],1.8 µM (active)
CC[n+]1c(/C=C/N(C)c2ccccc2)oc2ccccc21,EC50,[8],16.9 µM (active)
same,EC50,[6],> 150 µM (inactive)
same,EC50,[9],0.258 µM (active)
same,EC50,[7],3.58 µM (active)
COc1ccccc1N1CCN(C(=O)C(C)NC(=O)c2cccc([N+](=O)[O-])c2)CC1 (configuration not stated),IC50,Fatty acid synthase [3],2.72 µM (active)
same,IC50,Fatty acid synthase [4],1.48 µM (active)
